# Patent publication US20240043427A1 (Gilead Sciences, Inc., priority 2020, published 2024)
# Key:
# CD73 [1] = target: T1, CD73 (Homo sapiens (Human), UniProt P21589); format: biochemical; conditions: 1 mM NaH2PO4 in enzyme buffer, CD73 0.3 nM, AMP 15 uM
# CD73 [2] = target: T1, CD73; assay: MDA-MB-231 Cell Based CD73 Activity Assay (DMEM); conditions: MDA-MB-231-GFP cells, DMEM medium with 10% human plasma, 200 uM AMP
# T1 sequence (P21589 27-574): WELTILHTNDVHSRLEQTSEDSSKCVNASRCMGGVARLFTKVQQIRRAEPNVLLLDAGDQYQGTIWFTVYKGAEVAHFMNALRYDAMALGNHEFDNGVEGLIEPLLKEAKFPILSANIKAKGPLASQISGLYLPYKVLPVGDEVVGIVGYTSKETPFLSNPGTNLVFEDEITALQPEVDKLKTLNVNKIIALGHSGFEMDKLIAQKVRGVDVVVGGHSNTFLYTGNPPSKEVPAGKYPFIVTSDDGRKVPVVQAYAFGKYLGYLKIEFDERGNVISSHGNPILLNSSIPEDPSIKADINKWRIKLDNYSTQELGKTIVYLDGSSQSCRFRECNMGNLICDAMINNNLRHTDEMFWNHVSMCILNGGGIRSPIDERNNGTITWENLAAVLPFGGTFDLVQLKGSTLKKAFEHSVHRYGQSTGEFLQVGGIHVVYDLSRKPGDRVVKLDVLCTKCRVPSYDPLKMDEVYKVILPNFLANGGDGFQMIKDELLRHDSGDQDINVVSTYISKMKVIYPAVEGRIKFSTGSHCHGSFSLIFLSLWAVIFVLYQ
Compound,IC50 (CD73 [1]) [µM],EC50 (CD73 [2]) [µM]
"O=c1[nH]cc(-c2cc([C@H]3C[C@@H]3c3ccc4cnn(CC(F)(F)F)c4c3)n3nccc3n2)c(=O)[nH]1 [Example 456, 5-(7-((1S,2S)-2-(1-(2,2,2-trifluoroethyl)-1H-indazol-6-yl)cyclopropyl)pyrazolo[1,5-a]pyrimidin-5-yl)pyrimidine-2,4(1H,3H)-dione]",0.00053,0.00015
"O=c1[nH]cc(-c2cc([C@H]3C[C@@H]3c3ccc4c(Cl)nn(CC(F)(F)F)c4c3)c3nccn3n2)c(=O)[nH]1 [Example 459, 5-(8-((1S,2S)-2-(3-chloro-1-(2,2,2-trifluoroethyl)-1H-indazol-6-yl)cyclopropyl)imidazo[1,2-b]pyridazin-6-yl)pyrimidine-2,4(1H,3H)-dione]",0.00075,0.00038
"O=c1[nH]cc(-c2cc([C@H]3C[C@@H]3c3cc(Cl)c4cnn(CC(F)(F)F)c4c3)c3nccn3n2)c(=O)[nH]1 [Example 460, 5-(8-((1S,2S)-2-(4-chloro-1-(2,2,2-trifluoroethyl)-1H-indazol-6-yl)cyclopropyl)imidazo[1,2-b]pyridazin-6-yl)pyrimidine-2,4(1H,3H)-dione]",0.00046,0.00038
"O=c1[nH]cc(-c2cc(N3C[C@@H](F)[C@@H](F)C3)n3ncnc3n2)c(=O)[nH]1 [Example 472, 5-(7-((3R,4S)-3,4-difluoropyrrolidin-1-yl)-[1,2,4]triazolo[1,5-a]pyrimidin-5-yl)pyrimidine-2,4(1H,3H)-dione]",0.0156,0.0586
"COC1CN(c2cc(-c3c[nH]c(=O)[nH]c3=O)nn3ccnc23)CC1(F)F (centres unmarked) [Example 473, 5-(8-(3,3-difluoro-4-methoxypyrrolidin-1-yl)imidazo[1,2-b]pyridazin-6-yl)pyrimidine-2,4(1H,3H)-dione]",0.00576,0.0183
"COC1CN(c2cc(-c3c[nH]c(=O)[nH]c3=O)nn3c(F)cnc23)CC1(F)F (centres unmarked) [Example 474, 5-(8-(3,3-difluoro-4-methoxypyrrolidin-1-yl)-3-fluoroimidazo[1,2-b]pyridazin-6-yl)pyrimidine-2,4(1H,3H)-dione]",0.00747,0.0267
"CC(C)Cc1cn2nc(-c3c[nH]c(=O)[nH]c3=O)cc(N3CC(F)(F)C4(CC4)C3)c2n1 [Example 475, 5-(8-(7,7-difluoro-5-azaspiro[2.4]heptan-5-yl)-2-isobutylimidazo[1,2-b]pyridazin-6-yl)pyrimidine-2,4(1H,3H)-dione]",0.0321,0.932
"O=c1[nH]cc(-c2cc(N3C[C@H]4CC[C@H]4C3)c3nccn3n2)c(=O)[nH]1 [Example 476, 5-(8-(cis-3-azabicyclo[3.2.0]heptan-3-yl)imidazo[1,2-b]pyridazin-6-yl)pyrimidine-2,4(1H,3H)-dione]",0.0388,0.0322
"O=C1CCN(c2cc(-c3c[nH]c(=O)[nH]c3=O)nn3ccnc23)N1 [Example 480, 5-(8-(3-oxopyrazolidin-1-yl)imidazo[1,2-b]pyridazin-6-yl)pyrimidine-2,4(1H,3H)-dione]",> 0.25,1.92
"O=c1[nH]cc(-c2cc(N3CC(F)(F)C3)c3nccn3n2)c(=O)[nH]1 [Example 481, 5-(8-(3,3-difluoroazetidin-1-yl)imidazo[1,2-b]pyridazin-6-yl)pyrimidine-2,4(1H,3H)-dione]",0.0261,0.0444
"O=c1[nH]cc(-c2cc(N3CCCCCC3)c3nccn3n2)c(=O)[nH]1 [Example 483, 5-(8-(azepan-1-yl)imidazo[1,2-b]pyridazin-6-yl)pyrimidine-2,4(1H,3H)-dione]",> 0.25,0.566
"CC1CCN(c2cc(-c3c[nH]c(=O)[nH]c3=O)nn3ccnc23)CCC1(F)F (centres unmarked) [Example 484, 5-(8-(4,4-difluoro-5-methylazepan-1-yl)imidazo[1,2-b]pyridazin-6-yl)pyrimidine-2,4(1H,3H)-dione]",0.0687,0.18
"CC(C)(O)CCNc1cc(-c2c[nH]c(=O)[nH]c2=O)nn2ccnc12 [Example 485, 5-(8-((3-hydroxy-3-methylbutyl)amino)imidazo[1,2-b]pyridazin-6-yl)pyrimidine-2,4(1H,3H)-dione]",> 0.25,0.7
"O=c1[nH]cc(-c2cc(NCCCc3ccccc3)c3nccn3n2)c(=O)[nH]1 [Example 486, 5-(8-((3-phenylpropyl)amino)imidazo[1,2-b]pyridazin-6-yl)pyrimidine-2,4(1H,3H)-dione]",> 0.25,1.01
"O=c1[nH]cc(-c2cc(NCCc3ccccc3)c3nccn3n2)c(=O)[nH]1 [Example 487, 5-(8-(phenethylamino)imidazo[1,2-b]pyridazin-6-yl)pyrimidine-2,4(1H,3H)-dione]",0.0279,0.081
"CC(C)(C)OC(=O)N1CC2(C1)CN(c1cc(-c3c[nH]c(=O)[nH]c3=O)nn3ccnc13)CC2(F)F [Example 488, tert-butyl 6-(6-(2,4-dioxo-1,2,3,4-tetrahydropyrimidin-5-yl)imidazo[1,2-b]pyridazin-8-yl)-8,8-difluoro-2,6-diazaspiro[3.4]octane-2-carboxylate]",0.0169,0.013
"O=c1[nH]cc(-c2cc(NCCc3cccc(C(F)(F)F)c3)c3nccn3n2)c(=O)[nH]1 [Example 489, 5-(8-((3-(trifluoromethyl)phenethyl)amino)imidazo[1,2-b]pyridazin-6-yl)pyrimidine-2,4(1H,3H)-dione]",> 0.25,1.68
"O=c1[nH]cc(-c2cc(NCCc3cccc(Cl)c3)c3nccn3n2)c(=O)[nH]1 [Example 490, 5-(8-((3-chlorophenethyl)amino)imidazo[1,2-b]pyridazin-6-yl)pyrimidine-2,4(1H,3H)-dione]",0.095,0.463
"O=c1[nH]cc(-c2cc(NCCc3cccc(F)c3)c3nccn3n2)c(=O)[nH]1 [Example 492, 5-(8-((3-fluorophenethyl)amino)imidazo[1,2-b]pyridazin-6-yl)pyrimidine-2,4(1H,3H)-dione]",0.0256,0.0584

# Further lines, results first:
IC50 (CD73 [1]) [µM],EC50 (CD73 [2]) [µM],Compound
0.00352,0.00967,"CC(C)NC(=O)CCC(F)(F)COc1cc(-c2c[nH]c(=O)[nH]c2=O)nn2ccnc12 [Example 457, 5-((6-(2,4-dioxo-1,2,3,4-tetrahydropyrimidin-5-yl)imidazo[1,2-b]pyridazin-8-yl)oxy)-4,4-difluoro-N-isopropylpentanamide]"
0.00404,0.0132,"O=C(CCC(F)(F)COc1cc(-c2c[nH]c(=O)[nH]c2=O)nn2ccnc12)NCC(F)(F)F [Example 458, 5-((6-(2,4-dioxo-1,2,3,4-tetrahydropyrimidin-5-yl)imidazo[1,2-b]pyridazin-8-yl)oxy)-4,4-difluoro-N-(2,2,2-trifluoroethyl)pentanamide]"
0.00086,0.00324,"N#Cc1ccc([C@H]2C[C@@H]2c2cc(-c3c[nH]c(=O)[nH]c3=O)nn3ccnc23)cc1 [Example 465, 4-((1S,2S)-2-(6-(2,4-dioxo-1,2,3,4-tetrahydropyrimidin-5-yl)imidazo[1,2-b]pyridazin-8-yl)cyclopropyl)benzonitrile]"
0.00085,0.00386,"N#Cc1ccc([C@H]2C[C@@H]2c2cc(-c3c[nH]c(=O)[nH]c3=O)nn3ccnc23)cc1F [Example 467, 4-((1S,2S)-2-(6-(2,4-dioxo-1,2,3,4-tetrahydropyrimidin-5-yl)imidazo[1,2-b]pyridazin-8-yl)cyclopropyl)-2-fluorobenzonitrile]"
0.00173,0.015,"O=c1[nH]cc(-c2cc([C@H]3C[C@@H]3c3ccc(F)cc3F)n3nccc3n2)c(=O)[nH]1 [Example 469, 5-(7-((1S,2S)-2-(2,4-difluorophenyl)cyclopropyl)pyrazolo[1,5-a]pyrimidin-5-yl)pyrimidine-2,4(1H,3H)-dione]"
0.00023,0.00013,"O=c1[nH]cc(-c2cc([C@H]3C[C@@H]3c3ccc4cnn(CC(F)(F)F)c4c3)c3ncc(Cl)n3n2)c(=O)[nH]1 [Example 470, 5-(3-chloro-8-((1S,2S)-2-(1-(2,2,2-trifluoroethyl)-1H-indazol-6-yl)cyclopropyl)imidazo[1,2-b]pyridazin-6-yl)pyrimidine-2,4(1H,3H)-dione]"
> 0.25,0.952,"COC[C@@H]1CCCN1c1cc(-c2c[nH]c(=O)[nH]c2=O)nn2ccnc12 [Example 477, (S)-5-(8-(2-(methoxymethyl)pyrrolidin-1-yl)imidazo[1,2-b]pyridazin-6-yl)pyrimidine-2,4(1H,3H)-dione]"
0.0321,0.0537,"O=c1[nH]cc(-c2cc(N3CC4CCC4(F)C3)c3nccn3n2)c(=O)[nH]1 (centres unmarked) [Example 478, 5-(8-(1-fluoro-3-azabicyclo[3.2.0]heptan-3-yl)imidazo[1,2-b]pyridazin-6-yl)pyrimidine-2,4(1H,3H)-dione]"
0.0026,0.00906,"CC1CN(c2cc(-c3c[nH]c(=O)[nH]c3=O)nn3ccnc23)CC1(F)F (centres unmarked) [Example 479, 5-(8-(3,3-difluoro-4-methylpyrrolidin-1-yl)imidazo[1,2-b]pyridazin-6-yl)pyrimidine-2,4(1H,3H)-dione]"
> 0.25,1.23,"O=C1CN(c2cc(-c3c[nH]c(=O)[nH]c3=O)nn3ccnc23)CCN1Cc1ccc(F)cc1 [Example 482, 5-(8-(4-(4-fluorobenzyl)-3-oxopiperazin-1-yl)imidazo[1,2-b]pyridazin-6-yl)pyrimidine-2,4(1H,3H)-dione]"
> 0.25,1.68,"O=c1[nH]cc(-c2cc(NCCc3ccccc3Cl)c3nccn3n2)c(=O)[nH]1 [Example 491, 5-(8-((2-chlorophenethyl)amino)imidazo[1,2-b]pyridazin-6-yl)pyrimidine-2,4(1H,3H)-dione]"
0.194,0.837,"O=c1[nH]cc(-c2cc(NCCc3ccccc3F)c3nccn3n2)c(=O)[nH]1 [Example 493, 5-(8-((2-fluorophenethyl)amino)imidazo[1,2-b]pyridazin-6-yl)pyrimidine-2,4(1H,3H)-dione]"
